Measured values as given in the NIST ThermoML archive (doi:10.1021/acs.jced.8b01157).
± gives the expanded uncertainty stated by the source.

Assay: mn = molality of the nth substance listed, in mol/kg
Conditions: 100 kPa, Liquid; for speed of sound: Frequency=3 MHz, Single path-length method; for mass density: Vibrating tube method

Structure (SMILES): N.N.O=P(O)(O)O [diammonium hydrogen phosphate] + O
- speed of sound (288.15 K, m1 = 0.5): 1517.7 ± 2.3 m/s
- speed of sound (288.15 K, m1 = 1): 1572 ± 3 m/s
- speed of sound (288.15 K, m1 = 1.5): 1629.6 ± 4 m/s
- mass density (288.15 K, m1 = 0.5): 1032.61 ± 1.2 kg/m3
- mass density (288.15 K, m1 = 1): 1066.4 ± 1.6 kg/m3
- mass density (288.15 K, m1 = 1.5): 1097.53 ± 2.1 kg/m3
- speed of sound (298.15 K, m1 = 0.5): 1544.3 ± 2.3 m/s
- speed of sound (298.15 K, m1 = 1): 1597.9 ± 2.9 m/s
- speed of sound (298.15 K, m1 = 1.5): 1650.4 ± 3.6 m/s
- mass density (298.15 K, m1 = 0.5): 1030.71 ± 1.2 kg/m3
- mass density (298.15 K, m1 = 1): 1064.03 ± 1.6 kg/m3
- mass density (298.15 K, m1 = 1.5): 1095.18 ± 2.1 kg/m3
- speed of sound (308.15 K, m1 = 0.5): 1564.8 ± 2.3 m/s
- speed of sound (308.15 K, m1 = 1): 1614.1 ± 2.8 m/s
- speed of sound (308.15 K, m1 = 1.5): 1664.4 ± 3.6 m/s
- mass density (308.15 K, m1 = 0.5): 1026.1 ± 1.2 kg/m3
- mass density (308.15 K, m1 = 1): 1060.22 ± 1.6 kg/m3
- mass density (308.15 K, m1 = 1.5): 1090.11 ± 2.1 kg/m3
- speed of sound (318.15 K, m1 = 0.5): 1581.3 ± 2.2 m/s
- speed of sound (318.15 K, m1 = 1): 1628.3 ± 2.8 m/s
- speed of sound (318.15 K, m1 = 1.5): 1676.6 ± 3.5 m/s
- mass density (318.15 K, m1 = 0.5): 1022.85 ± 1.2 kg/m3
- mass density (318.15 K, m1 = 1): 1055.59 ± 1.6 kg/m3
- mass density (318.15 K, m1 = 1.5): 1086.19 ± 2.1 kg/m3

Structure (SMILES): N.O=P(O)(O)O [ammonium dihydrogen phosphate] + O
- speed of sound (288.15 K, m1 = 0.5): 1507.3 ± 2.2 m/s
- speed of sound (288.15 K, m1 = 1): 1544.3 ± 2.5 m/s
- speed of sound (288.15 K, m1 = 1.5): 1579 ± 2.9 m/s
- mass density (288.15 K, m1 = 0.5): 1030 ± 1.1 kg/m3
- mass density (288.15 K, m1 = 1): 1057.62 ± 1.5 kg/m3
- mass density (288.15 K, m1 = 1.5): 1082.56 ± 1.8 kg/m3
- speed of sound (298.15 K, m1 = 0.5): 1534.9 ± 2.1 m/s
- speed of sound (298.15 K, m1 = 1): 1569.7 ± 2.4 m/s
- speed of sound (298.15 K, m1 = 1.5): 1602.4 ± 2.7 m/s
- mass density (298.15 K, m1 = 0.5): 1026.45 ± 1.1 kg/m3
- mass density (298.15 K, m1 = 1): 1054.22 ± 1.5 kg/m3
- mass density (298.15 K, m1 = 1.5): 1079.6 ± 1.8 kg/m3
- speed of sound (308.15 K, m1 = 0.5): 1555.9 ± 2.1 m/s
- speed of sound (308.15 K, m1 = 1): 1588.9 ± 2.4 m/s
- speed of sound (308.15 K, m1 = 1.5): 1619.9 ± 2.7 m/s
- mass density (308.15 K, m1 = 0.5): 1023.33 ± 1.1 kg/m3
- mass density (308.15 K, m1 = 1): 1050.98 ± 1.5 kg/m3
- mass density (308.15 K, m1 = 1.5): 1075.85 ± 1.8 kg/m3
- speed of sound (318.15 K, m1 = 0.5): 1570.9 ± 2.1 m/s
- speed of sound (318.15 K, m1 = 1): 1602.6 ± 2.4 m/s
- speed of sound (318.15 K, m1 = 1.5): 1631.1 ± 2.7 m/s
- mass density (318.15 K, m1 = 0.5): 1019.74 ± 1.1 kg/m3
- mass density (318.15 K, m1 = 1): 1046.48 ± 1.4 kg/m3
- mass density (318.15 K, m1 = 1.5): 1071.76 ± 1.8 kg/m3
